Assay results as given in ChEMBL document CHEMBL2177007, “Indole-derived psammaplin A analogues as epigenetic modulators with multiple inhibitory activities” (J Med Chem, 2012).
Activity calls are given as the source filed them. The calls are words filed in the database; no cut-off is given here.

How the values were obtained:
[1] = target: Histone deacetylase 1 (Homo sapiens) (UniProt Q13547); experiment: Inhibition of HDAC1 in human U937 cells at 5 uM […]; format: cell-based; conditions: U-937
[2] = target: Histone deacetylase (Homo sapiens) (UniProt Q13547+O15379+Q9UBN7+Q92769+Q9UQL6+Q8WUI4+Q9BY41+Q96DB2+P56524+Q9UKV0+Q969S8); experiment: Inhibition of HDAC in human U937 cells assessed as induction of histone H3 acetylation at 5 uM after 30 hrs by cytofluorimetric analysis; format: cell-based; conditions: U-937
[3] = target: T1, Protein deacetylase HDAC6 (Homo sapiens) (UniProt Q9UBN7); experiment: Inhibition of HDAC6 in human U937 cells assessed as induction of alpha-tubulin acetylation at 5 uM after 30 hrs by cytofluorimetric analysis; format: cell-based; conditions: U-937
T1 sequence (whole entry): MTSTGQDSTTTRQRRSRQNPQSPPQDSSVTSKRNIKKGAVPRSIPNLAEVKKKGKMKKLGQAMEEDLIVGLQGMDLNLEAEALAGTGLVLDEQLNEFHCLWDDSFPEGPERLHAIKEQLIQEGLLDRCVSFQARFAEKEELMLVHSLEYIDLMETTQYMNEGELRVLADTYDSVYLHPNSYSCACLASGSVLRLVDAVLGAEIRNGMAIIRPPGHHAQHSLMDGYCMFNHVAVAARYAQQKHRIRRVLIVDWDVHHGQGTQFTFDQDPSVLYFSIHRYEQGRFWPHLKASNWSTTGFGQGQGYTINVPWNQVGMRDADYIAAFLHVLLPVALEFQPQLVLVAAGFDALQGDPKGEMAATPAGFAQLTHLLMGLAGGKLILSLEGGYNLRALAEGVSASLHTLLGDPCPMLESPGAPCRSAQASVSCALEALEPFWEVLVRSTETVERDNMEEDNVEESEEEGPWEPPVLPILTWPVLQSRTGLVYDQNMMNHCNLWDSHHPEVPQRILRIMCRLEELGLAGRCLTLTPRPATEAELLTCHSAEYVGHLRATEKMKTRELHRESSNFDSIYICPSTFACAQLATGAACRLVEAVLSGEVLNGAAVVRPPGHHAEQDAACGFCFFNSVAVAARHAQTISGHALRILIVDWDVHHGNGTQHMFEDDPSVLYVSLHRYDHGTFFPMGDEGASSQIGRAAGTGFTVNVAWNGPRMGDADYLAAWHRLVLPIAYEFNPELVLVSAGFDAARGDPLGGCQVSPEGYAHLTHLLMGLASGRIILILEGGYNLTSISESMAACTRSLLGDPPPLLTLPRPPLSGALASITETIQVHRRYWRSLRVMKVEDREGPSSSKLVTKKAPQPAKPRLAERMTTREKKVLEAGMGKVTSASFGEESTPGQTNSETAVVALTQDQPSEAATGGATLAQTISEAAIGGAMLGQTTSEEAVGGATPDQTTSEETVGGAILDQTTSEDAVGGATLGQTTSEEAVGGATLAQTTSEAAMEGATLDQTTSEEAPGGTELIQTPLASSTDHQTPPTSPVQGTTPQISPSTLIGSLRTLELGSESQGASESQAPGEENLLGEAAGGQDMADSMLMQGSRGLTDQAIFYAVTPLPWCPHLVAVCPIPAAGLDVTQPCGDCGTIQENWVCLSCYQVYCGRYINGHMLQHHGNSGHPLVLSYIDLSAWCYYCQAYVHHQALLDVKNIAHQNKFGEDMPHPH

[4] = target: Protein kinase C alpha type (Homo sapiens) (UniProt P17252); experiment: Inhibition of PKCalpha in human U937 cells assessed as p21WAF1/CIP1 expression at 5 uM after 30 hrs by cytofluorimetric analysis; format: cell-based; conditions: U-937
U-937 [5] = experiment: Cell cycle arrest in human U937 cells assessed as accumulation at G2M phase at 5 uM after 24 hrs by cytofluorimetric analysis; format: functional, cell-based
U-937 [6] = experiment: Cell cycle arrest in human U937 cells assessed as accumulation at G1 phase at 5 uM after 24 hrs by cytofluorimetric analysis; format: functional, cell-based
U-937 [7] = experiment: Induction of cell differentiation in human U937 cells assessed as CD11c expression at 5 uM after 30 hrs by cytofluorimetric analysis; format: functional, cell-based
U-937 [8] = experiment: Induction of apoptosis in human U937 cells at 5 uM after 30 hrs; format: functional, cell-based
[9] = target: T2, NAD-dependent protein deacetylase sirtuin-1 (Homo sapiens) (UniProt Q96EB6); experiment: Inhibition of human recombinant SIRT1 using KI-177 as substrate at 5 uM after 30 mins by fluorescence assay
T2 sequence (whole entry): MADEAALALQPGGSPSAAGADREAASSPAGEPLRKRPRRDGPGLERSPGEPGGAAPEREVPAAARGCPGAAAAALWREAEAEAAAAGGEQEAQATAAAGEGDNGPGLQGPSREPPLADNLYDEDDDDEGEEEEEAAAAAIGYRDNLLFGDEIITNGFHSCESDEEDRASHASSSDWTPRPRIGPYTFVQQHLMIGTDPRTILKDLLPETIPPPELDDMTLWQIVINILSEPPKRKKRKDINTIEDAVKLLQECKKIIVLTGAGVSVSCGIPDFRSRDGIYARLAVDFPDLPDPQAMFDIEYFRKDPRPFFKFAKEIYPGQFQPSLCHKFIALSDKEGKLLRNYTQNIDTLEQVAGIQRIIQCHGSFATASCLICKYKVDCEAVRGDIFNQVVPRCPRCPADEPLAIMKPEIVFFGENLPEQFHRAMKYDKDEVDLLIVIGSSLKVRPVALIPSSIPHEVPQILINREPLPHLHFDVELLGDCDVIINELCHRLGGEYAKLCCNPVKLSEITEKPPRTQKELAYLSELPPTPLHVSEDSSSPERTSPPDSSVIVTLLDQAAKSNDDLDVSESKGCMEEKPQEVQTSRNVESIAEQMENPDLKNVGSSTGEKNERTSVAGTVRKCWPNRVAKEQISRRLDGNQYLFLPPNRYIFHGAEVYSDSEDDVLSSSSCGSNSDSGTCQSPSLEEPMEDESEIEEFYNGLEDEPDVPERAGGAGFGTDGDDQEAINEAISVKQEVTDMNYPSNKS

[10] = target: DNA (cytosine-5)-methyltransferase 1 (Homo sapiens) (UniProt P26358); experiment: Inhibition of recombinant DNMT1 using S-adenosyl-L-[methyl-3H]methionine as substrate at 5 uM after 2 hrs by radioactive assay
[11] = target: T2, NAD-dependent protein deacetylase sirtuin-1 (Homo sapiens); experiment: Inhibition of SIRT1 in human MCF7 cells assessed as p53 acetylation on lysine 382 at 5 uM after 24 hrs by Western blot analysis; format: cell-based
[12] = target: T2, NAD-dependent protein deacetylase sirtuin-1 (Homo sapiens); experiment: Inhibition of SIRT1 in human U937 cells assessed as H3 acetylation on lysine K9 at 5 uM after 24 hrs by Western blot analysis; format: cell-based; conditions: U-937
[13] = target: T2, NAD-dependent protein deacetylase sirtuin-1 (Homo sapiens); experiment: Inhibition of SIRT1 in human U937 cells assessed as H3 acetylation on lysine K56 at 5 uM after 24 hrs by Western blot analysis; format: cell-based; conditions: U-937
U-937 [14] = experiment: Effect on DNMT1 level in human U937 cells at 0.5 to 5 uM after 24 hrs by Western blot analysis; format: functional, cell-based
[15] = target: Histone deacetylase 4 (Homo sapiens) (UniProt P56524); experiment: Inhibition of HDAC4 in human U937 cells at 5 uM […]; format: cell-based; conditions: U-937
[16] = target: DNA (cytosine-5)-methyltransferase 1 (Homo sapiens) (UniProt P26358); experiment: Inhibition of DNMT1 human u937 cells assessed as reactivation of p16 expression at 0.5 to 5 uM after 24 hrs by Western blot analysis
AML = experiment: Induction of apoptosis in AML patient blasts at 5 uM after 26 hrs; format: functional; conditions: Homo sapiens
[17] = Cell cycle arrest in apoptosis in AML patient blasts at 5 uM after 26 hrs; format: functional; conditions: Homo sapiens
U-937 [18] = experiment: Cell cycle arrest in human U937 cells at 5 uM after 24 hrs by cytofluorimetric analysis; format: functional, cell-based
[19] = target: DNA (cytosine-5)-methyltransferase 1 (Homo sapiens) (UniProt P26358); experiment: Inhibition of DNMT1 human U937 cells assessed as reactivation of p16 expression at 5 uM after 24 hrs by Western blot analysis; format: cell-based; conditions: U-937
[20] = target: T2, NAD-dependent protein deacetylase sirtuin-1 (Homo sapiens); experiment: Inhibition of SIRT1 in human MCF7 cells assessed as p53 acetylation on lysine 382 after 24 hrs by Western blot analysis; format: cell-based

Histone deacetylase 1 (Homo sapiens), sequence (Q13547 whole entry): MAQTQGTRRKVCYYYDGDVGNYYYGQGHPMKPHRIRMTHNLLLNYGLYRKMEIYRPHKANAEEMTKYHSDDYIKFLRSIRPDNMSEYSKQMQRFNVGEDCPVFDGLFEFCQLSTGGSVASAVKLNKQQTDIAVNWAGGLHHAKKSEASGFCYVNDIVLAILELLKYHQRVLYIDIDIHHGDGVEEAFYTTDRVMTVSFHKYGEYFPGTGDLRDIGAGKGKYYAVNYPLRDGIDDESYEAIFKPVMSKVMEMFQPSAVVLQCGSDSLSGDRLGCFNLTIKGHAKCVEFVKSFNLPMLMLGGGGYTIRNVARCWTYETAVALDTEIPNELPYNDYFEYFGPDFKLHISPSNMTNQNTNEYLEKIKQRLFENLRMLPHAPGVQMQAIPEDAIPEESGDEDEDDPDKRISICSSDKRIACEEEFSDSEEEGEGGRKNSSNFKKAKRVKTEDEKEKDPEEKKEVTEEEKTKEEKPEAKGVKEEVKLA
DNA (cytosine-5)-methyltransferase 1 (Homo sapiens), sequence (P26358 whole entry): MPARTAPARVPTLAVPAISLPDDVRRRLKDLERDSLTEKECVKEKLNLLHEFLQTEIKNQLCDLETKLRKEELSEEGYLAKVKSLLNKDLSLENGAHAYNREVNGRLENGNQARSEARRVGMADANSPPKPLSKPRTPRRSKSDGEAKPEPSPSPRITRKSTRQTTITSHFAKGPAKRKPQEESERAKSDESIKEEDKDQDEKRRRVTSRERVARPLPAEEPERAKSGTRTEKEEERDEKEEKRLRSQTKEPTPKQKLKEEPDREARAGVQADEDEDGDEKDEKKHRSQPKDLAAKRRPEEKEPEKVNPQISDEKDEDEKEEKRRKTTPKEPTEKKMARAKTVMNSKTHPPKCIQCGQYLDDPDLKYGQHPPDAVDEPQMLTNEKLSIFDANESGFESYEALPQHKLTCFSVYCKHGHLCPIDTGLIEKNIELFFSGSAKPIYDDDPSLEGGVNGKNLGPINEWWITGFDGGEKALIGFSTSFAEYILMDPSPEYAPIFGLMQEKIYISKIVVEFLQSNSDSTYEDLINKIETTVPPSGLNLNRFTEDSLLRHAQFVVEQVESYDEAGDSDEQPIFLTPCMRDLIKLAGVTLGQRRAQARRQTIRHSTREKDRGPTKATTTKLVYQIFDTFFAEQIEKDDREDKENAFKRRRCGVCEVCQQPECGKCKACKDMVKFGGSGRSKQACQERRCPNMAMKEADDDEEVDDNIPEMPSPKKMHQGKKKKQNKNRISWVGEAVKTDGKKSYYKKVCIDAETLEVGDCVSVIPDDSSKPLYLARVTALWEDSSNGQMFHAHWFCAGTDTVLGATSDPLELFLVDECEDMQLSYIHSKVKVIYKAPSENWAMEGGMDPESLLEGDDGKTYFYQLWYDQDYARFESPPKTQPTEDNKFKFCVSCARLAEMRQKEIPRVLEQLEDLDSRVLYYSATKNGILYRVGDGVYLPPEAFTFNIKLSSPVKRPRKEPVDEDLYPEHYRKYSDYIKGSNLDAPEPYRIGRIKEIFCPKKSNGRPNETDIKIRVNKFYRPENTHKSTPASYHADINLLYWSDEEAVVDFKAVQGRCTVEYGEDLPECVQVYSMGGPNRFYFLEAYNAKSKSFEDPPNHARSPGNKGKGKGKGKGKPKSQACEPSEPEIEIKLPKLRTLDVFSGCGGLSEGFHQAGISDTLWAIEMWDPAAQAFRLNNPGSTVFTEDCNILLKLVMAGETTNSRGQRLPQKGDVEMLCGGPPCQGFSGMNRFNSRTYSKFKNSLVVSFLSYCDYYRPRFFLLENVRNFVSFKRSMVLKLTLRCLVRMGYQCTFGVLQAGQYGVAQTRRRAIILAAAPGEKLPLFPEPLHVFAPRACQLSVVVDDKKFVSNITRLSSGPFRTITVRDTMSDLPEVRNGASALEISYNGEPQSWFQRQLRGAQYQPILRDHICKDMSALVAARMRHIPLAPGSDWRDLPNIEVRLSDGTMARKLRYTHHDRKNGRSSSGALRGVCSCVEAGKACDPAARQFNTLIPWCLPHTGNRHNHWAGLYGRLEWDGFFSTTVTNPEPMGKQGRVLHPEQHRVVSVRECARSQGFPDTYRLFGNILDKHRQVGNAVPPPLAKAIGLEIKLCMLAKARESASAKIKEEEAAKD
Histone deacetylase 4 (Homo sapiens), sequence (P56524 whole entry): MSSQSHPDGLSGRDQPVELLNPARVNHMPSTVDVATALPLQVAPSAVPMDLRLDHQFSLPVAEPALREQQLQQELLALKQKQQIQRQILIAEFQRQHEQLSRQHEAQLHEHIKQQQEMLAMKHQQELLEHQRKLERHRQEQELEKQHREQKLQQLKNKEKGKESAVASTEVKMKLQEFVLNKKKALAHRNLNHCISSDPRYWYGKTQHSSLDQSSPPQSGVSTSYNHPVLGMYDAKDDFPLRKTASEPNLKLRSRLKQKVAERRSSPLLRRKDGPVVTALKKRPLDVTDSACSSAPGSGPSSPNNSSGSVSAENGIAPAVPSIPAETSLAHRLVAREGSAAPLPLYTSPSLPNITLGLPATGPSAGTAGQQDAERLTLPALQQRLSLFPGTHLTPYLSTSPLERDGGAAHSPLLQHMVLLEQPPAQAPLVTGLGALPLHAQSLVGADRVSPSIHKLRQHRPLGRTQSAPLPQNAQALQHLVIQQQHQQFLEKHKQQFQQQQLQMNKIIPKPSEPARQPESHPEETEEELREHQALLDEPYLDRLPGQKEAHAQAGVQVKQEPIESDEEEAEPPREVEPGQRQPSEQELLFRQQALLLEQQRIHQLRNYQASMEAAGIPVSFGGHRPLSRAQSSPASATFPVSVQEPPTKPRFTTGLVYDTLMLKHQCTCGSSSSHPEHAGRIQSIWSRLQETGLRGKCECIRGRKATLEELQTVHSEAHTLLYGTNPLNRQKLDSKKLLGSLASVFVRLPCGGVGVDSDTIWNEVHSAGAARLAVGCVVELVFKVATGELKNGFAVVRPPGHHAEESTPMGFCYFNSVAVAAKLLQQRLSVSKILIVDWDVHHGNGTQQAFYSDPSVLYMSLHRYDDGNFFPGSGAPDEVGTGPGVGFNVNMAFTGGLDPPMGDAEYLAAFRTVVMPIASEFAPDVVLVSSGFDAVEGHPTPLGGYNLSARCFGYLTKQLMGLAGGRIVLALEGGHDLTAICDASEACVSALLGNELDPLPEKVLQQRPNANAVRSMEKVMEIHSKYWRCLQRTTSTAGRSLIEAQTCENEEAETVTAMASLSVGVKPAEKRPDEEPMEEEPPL

Row | inhibition [1] | inhibition [2] | inhibition [3] | inhibition [4] | inhibition [9] | inhibition [10] | inhibition [11] | inhibition [12] | inhibition [13] | inhibition [15] [%] | inhibition [16] | inhibition [19] | Compound | Activity (U-937 [7]) | Activity (U-937 [8]) | Activity (U-937 [14]) | Activity (AML) | Activity [17] | Activity (U-937 [18]) | also measured
1 | 60% | Active | Active | Active |  |  |  |  |  | 40 |  |  | O=C(NCCSSCCNC(=O)/C(Cc1c[nH]c2cc(Br)ccc12)=N/O)/C(Cc1c[nH]c2cc(Br)ccc12)=N/O | Active | Active |  | Active | Active | Active | 
2 | Active | Active | Active | Active | inactive | inactive |  | Active | Active |  | Active | Active | Cn1cc(C/C(=N\O)C(=O)NCCSSCCNC(=O)/C(Cc2cn(C)c3ccc(Br)cc23)=N/O)c2cc(Br)ccc21 | Active | Active | inactive |  |  |  | inhibition [20]: Dose-dependent effect
3 | 60% | Active | Active | Active | Active | Active | Active |  |  | 40 | Active | Active | O=C(NCCSSCCNC(=O)/C(Cc1c[nH]c2ccc(Br)cc12)=N/O)/C(Cc1c[nH]c2ccc(Br)cc12)=N/O |  | Active | inactive | Active | Active |  | 

The remaining lines, values behind:

Row | Compound | inhibition [1] | inhibition [2] | inhibition [3] | inhibition [4] | inhibition [9] | inhibition [10] | inhibition [11] | inhibition [12] | inhibition [13] | inhibition [15] [%] | inhibition [16] | inhibition [19] | Activity (U-937 [7]) | Activity (U-937 [8]) | Activity (U-937 [14]) | Activity (AML) | Activity [17] | Activity (U-937 [18]) | also measured
4 | CSCCNC(=O)/C(Cc1c[nH]c2ccc(Br)cc12)=N/O | 40% | Active | Active | Active | inactive | inactive | Active | Active | Active | 20 | Active |  | Active | inactive | inactive | Active |  |  | Activity (U-937 [5]): inactive; Activity (U-937 [6]): Active
5 | O=C(NCCSSCCNC(=O)/C(Cc1c[nH]c2c(Br)cccc12)=N/O)/C(Cc1c[nH]c2c(Br)cccc12)=N/O | 60% | Active | Active | Active |  |  |  |  |  | 40 |  |  | Active | Active |  | Active | Active | Active | 
6 | O=C(NCCSSCCNC(=O)/C(Cc1ccc(O)c(Br)c1)=N/O)/C(Cc1ccc(O)c(Br)c1)=N/O |  |  | Active |  |  |  |  |  |  |  |  |  |  | Active |  | Active | Active |  | 
